What all share (type): in vivo, mouse
In experiment [1] the test system is ob/ob mutant mice. Kind of experiment: Weight gain and food intake in ob/ob mutants treated with leptin, MSH analog or both (Example 5). How it is done:
Leptin deficient (ob/ob) mutants show both hyperphagia and “increased metabolic efficiency” as witnessed by their ability to gain weight even when pair-fed with normal congenic controls. To determine the effects of leptin and MSH on food intake and weight gain, four sets of ob/ob mutants were treated with leptin, an MSH analog, both together, or vehicle alone. The MSH analog [Ac-Cys^4, D-Phe^7, Cys^10]α-MSH (4-13) was purchased from Peninsula Laboratories (Belmont, Calif.). Mice were treated with daily injections of 7 micrograms of each, both or neither.

Experiment [2] relates to POMC homozygous mutant female mice. Kind of experiment: Daily intraperitoneal MSH analog in POMC homozygous mutant mice: body weight, food intake, coat pigmentation (Example 2). The note with it: for weight loss, % of excess weight by 2 weeks: p<0.05 at day 16. How it is done:
(§1) To test initially for the effect of peripheral melanocortins on weight change, we selected the stable agonist [Ac-Cys^4, D-Phe^7, Cys^10]α-MSH (4-13) (described in Cody et al., 1985, J. Med. Chem. 28, 583-588; incorporated herein by reference in its entirety). Briefly, [Ac-Cys^4, D-Phe^7, Cys^10]α-MSH (4-13) amide, having the cysteines connected by a disulfide bridge, was obtained from Peninsula Laboratories, CA. Lyophilized powder was dissolved in water at 1 mg/ml, which was diluted in PBS to 10 μg/mL. During the experiments, mice were maintained on a normal 12 h/12 h light/dark cycle with food and water ad libitum. Mice were fed standard laboratory rodent diet (#5001).
(§2) In order to see whether the α-MSH analog has an effect on food intake, we compared weight change and food intake in these mice for one week (see bars in FIGS. 4A and 4B) under MSH analog treatment and after MSH analog treatment was stopped (FIGS. 4C and 4D). During one week under MSH analog treatment mutant mice lost 0.5 g, while wildtype littermates gained 0.3 g; the food intake during this time was equivalent in both groups (20.7 g in wildtypes, and 22.7 g in mutants).
An effect of MSH could also be seen on coat pigmentation. […] Yellow coat pigmentation gradually reappeared after MSH treatment was terminated (data not shown).

Another experiment relates to wildtype female mice. Kind of experiment: Daily intraperitoneal MSH analog in wildtype littermates: body weight, food intake (Example 2). The following applies: for weight loss in wildtype littermates: 1 microgram i.p. daily, 16-day treatment. Here is the method: as §1, §2
The test system of a further experiment is obese lep^ob/ob mice. Kind of experiment: Weight change in obese lep ob/ob mice treated with leptin, α-MSH analog or both (Example 4). The following applies: 3 μg of each compound i.p. once daily; mice aged 2 months. How it is done: To assess a more general effect of peripheral melanocortin on adipocytes, another genetic form of obesity, in lep^ob/ob mice, was treated with the α-MSH analog. In this experiment, the mice received leptin or the α-MSH analog alone, and in combination.
Briefly, obese lep^ob/ob mice at age 2 months (2 per group) received daily either: (1) 3 μg of α-MSH analog (described in Examples 2 and 3 above); (2) 3 μg of recombinant mouse leptin; (3) 3 μg of α-MSH analog and 3 μg of recombinant mouse leptin in combination; or (4) saline. The compounds were delivered intraperitoneally once daily, 1-2 hours before the onset of darkness.

Another experiment concerns POMC null mutant mice. Kind of experiment: Weight change and food intake under standard diet, MSH analog or high fat diet, POMC null mutant mice (Example 3). The following applies: 1 or 2 μg i.p. once daily. How it is done: (§3) P values were determined by ANOVA. If the major component of weight regulation through the melanocortinergic pathway was the regulation of feeding behavior, the observed changes in body weight in is POMC null mutant mice should be paralleled by a similar pattern in food uptake. This, however, was not observed (FIGS. 5B and 5D and Table 1).

Experiment [3] deals with ob/ob mutant mice. Kind of experiment: Core temperature of ob/ob mutants exposed to 4° C. after MSH analog (Example 5). The note with it: 7 micrograms; 5 hours without food, then 4° C. for 65 minutes; v. vehicle. How it is done: In 1977, the decreased ability of ob/ob mutants to maintain body temperature at 4° C. was noted. This preceded the onset of obesity in these mice. In view of the evidence that MSH regulates adipocyte metabolism, the present inventors hypothesized that the low levels of circulating MSH in leptin deficient (ob/ob) mutants was responsible for the impaired thermal regulation. To test this, ob/ob mutants were injected with 7 micrograms of MSH analog or vehicle only as described above. The mice were left without food for 5 hours and then exposed to 4° C. for 65 minutes. Their core temperatures were measured periodically by transfer to a coldroom (4° C.) where core temperatures were measured using a digital thermometer fitted with a rectal probe (Atkins Technical Inc., Gainesville, Fla.). […] As the mice had no opportunity to eat between injection of the MSH analog and the cold challenge, food intake cannot be responsible for the altered thermal regulation.

Another experiment deals with wildtype mice. Kind of experiment: Weight change and food intake under standard diet, MSH analog or high fat diet, wildtype mice (Example 3). The following applies: 1 or 2 μg i.p. once daily. Here is the method:
as §3

The test system of experiment [4] is ob/ob mutant mice (C57BL/6J-Lep^ob). Kind of experiment: Circulating MSH levels by RIA in ob/ob mutants after leptin (Example 5). The note with it: leptin 7 microgram/day i.p.; two hours after the tenth daily injection. Here is the method: To test the inductive ability of leptin on circulating MSH levels, ob/ob mutants (ob/ob mutant mice (C57BL/6J-Lep^ob) and congenic controls were purchased from the Jackson Laboratory, Bar Harbor, Me.) were treated with leptin (7 microgram/day) or with vehicle alone (Murine recombinant leptin was kindly provided by Dr. A. F Parlow through the National Hormone and Pituitary Program (NHPP); hormones were diluted to 70 micrograms per milliliter in PBS; mice were injected intraperitoneally with 0.1 mL). Two hours after the tenth daily injection, blood samples were drawn from the retro-orbital sinus and analyzed for MSH levels by RIA following the manufacturer's instructions (Peninsula Laboratories, Belmont, Calif.).

Where [5] appears, read: daily injections of 7 micrograms.

Entries after “also recorded” stand apart in the source; their conditions may differ.

Take “[Ac-Cys^4, D-Phe^7, Cys^10]α-MSH (4-13) amide [MSH analog]”: the “effect of MSH analog added to leptin on weight” value with ob/ob mutant mice [1] (7 micrograms of each, daily) was “inability of peripheral MSH analog to supplement the weight reducing effect”. In addition, in the experiment with ob/ob mutant mice [1] (setting [5]), the “effect on weight gain compared with effect on food intake” value was “greater on weight gain than on food intake”. In the experiment with ob/ob mutant mice [1] (setting [5]), the weight gain entry is reported as “effectively decreased weight gain; also recorded: decreases weight gain”. The “weight loss, % of excess weight by 2 weeks” value is on record as 46 % of excess weight in experiment [2] (1 microgram (~1 nmol) i.p. daily, mutant female mice, listed as MSH-agonist) and “over 40 % of excess weight” in experiment [2] (1 microgram (~1 nmol) i.p. daily, mutant female mice, listed as α-MSH agonist). For the same molecule, the “weight loss, % of excess weight within one week” value in experiment [2] (1 microgram (~1 nmol) i.p. daily, mutant female mice, p<0.1 at day 8) was 38 % of excess weight. For the same molecule, the “time until mutant mice started to gain weight after MSH injections were stopped” value in experiment [2] (after 16-day treatment) was “about 10 days”. In addition, the “weight regain after MSH injections were stopped” value in experiment [2] (another two weeks after onset of regain) was “reached close to their pretreatment weight”. For the same molecule, the “weight lost during one week under MSH analog treatment” value in experiment [2] (second week of treatment, mutant mice) came to 0.5 g. Further, the “food intake during one week under MSH analog treatment” value in experiment [2] (second week of treatment, mutants) turned out to be 22.7 g; with wildtype female mice (second week of treatment, wildtypes), 20.7 g. The “weight gained in one week after MSH analog treatment had been stopped for two weeks” value in experiment [2] (third week after termination, mutant mice) is listed as 1.7 g. Further, the “food intake in one week after MSH analog treatment had been stopped for two weeks” value in experiment [2] (third week after termination, mutants) is given as 35.7 g; in the experiment on wildtype female mice (third week after termination, wildtypes), 24.2 g. Besides, the “excess food intake of mutants over wildtypes after treatment stop” value in experiment [2] (third week after termination, p<0.005) was 11.5 g. In experiment [2] (treated for two weeks), the coat pigmentation result is “lost their yellowish tinge”. The entries for the “weight loss in wildtype littermates” value in the experiment with wildtype female mice (listed as MSH-agonist) and with wildtype female mice (listed as α-MSH agonist) were “no significant weight loss” and “did not lose significant weight”, respectively. Besides, the “weight gained during one week under MSH analog treatment” value in the experiment on wildtype female mice (second week of treatment, wildtype littermates) was determined as 0.3 g. The “weight gain in one week after MSH analog treatment had been stopped for two weeks” value in the experiment with wildtype female mice (third week after termination, wildtype littermates) is listed as 0.3 g. Also, in the experiment on obese lep^ob/ob mice, the “total weight change over a period of 10 days compared to untreated controls” value is listed as “slowed weight gain by almost half”. In addition, the “food intake under MSH analog” value in the experiment with POMC null mutant mice and with wildtype mice was “decreases food intake” each time. For the same molecule, the “weight change under MSH analog” value in the experiment on POMC null mutant mice was “lose excess weight”. The “core temperature / thermal homeostasis at 4° C.” value in the experiment on ob/ob mutant mice [3] is “maintained their core temperature much better; also recorded: increases thermal homeostasis”. The “weight regulation under MSH analog” value with wildtype mice is on record as “maintaining their body weight constant”.

B1: leptin: recombinant mouse leptin, product of the ob gene, provided through the National Hormone and Pituitary Program (protein, UniProt P41160 22-167, looked up)
Leptin: VPIQKVQDDTKTLIKTIVTRINDISHTQSVSAKQRVTGLDFIPGLHPILSLSKMDQTLAVYQQVLTSLPSQNVLQIANDLENLRDLLHLLAFSKSCSLPQTSGLQKPESLDGVLEASLYSTEVVALSRLQGSLQDILQQLDVSPEC
With B1, the weight gain entry in the experiment with ob/ob mutant mice [1] (setting [5]) is reported as “effectively decreased weight gain”. Moreover, the “total weight change over a period of 10 days compared to untreated controls” value with obese lep^ob/ob mice is listed as “little effect on preventing further weight gain”. The “circulating MSH levels” value in experiment [4] was “approached those found in normal control mice; also recorded: induces almost normal levels of circulating MSH”.

Values taken from patent publication US6716810B1, “Composition and method for regulation of body weight and associated conditions” (Eleanor Roosevelt Institute, priority 1998, dated 2004).
